Measurements taken from patent US11291669B2, “Compositions comprising phosphoinositide 3-kinase inhibitors and a second antiproliferative agent” (Karus Therapeutics Limited, priority 2015, dated 2022).
Like-named read-outs stand apart in the source and are kept apart here. Blank lines part the entries; values can stand above or below the molecule they belong to.

Assays:
[1] = Rodent pharmacokinetics, male CD1 mouse, plasma PK; assay type: in vivo; details: PO 10 mg/kg vs IV 5 mg/kg, read-out: F (oral bioavailability)
Description: Formulation: 10% DMSO, 90% Saline Dosing: 10 mg/kg P.O. and 5 mg/kg I.V. Plasma PK Summary: […]

[2] = Rodent pharmacokinetics, male Balb/c mouse, plasma PK; assay type: in vivo; details: for Oral Bioavailability (F): summary table, PO 10 mg/kg
Description: Animals in Group 1 were administered intravenously with Example B solution formulation in 20% Propylene Glycol, 50% of PEG 400 and 30% of (20% HPβCD in water) via tail vein at a dose of 3 mg/kg.
Animals in Group 2 were administered with oral solution formulation of Example B in 20% Propylene Glycol, 50% of PEG 400 and 30% of (20% HPβCD in water) at a dose of 10 mg/kg;
Dosing: 10 mg/kg P.O. and 3 mg/kg I.V.
Animals in Group 1 were administered intravenously with Example G solution formulation in 5% NMP, 5% solutol HS-15 in 90% HPIβCD solution (20% HPβCD in RO water) at 3 mg/kg dose.
Animals in Group 2 were administered orally with 10 mg/kg solution formulation of Example G in 5% NMP, 5% solutol HS-15 in 90% HPβCD solution (20% HPβCD in RO water)

- bioavailability ([1]; mesylate salt): 73.8%
Structure (SMILES): c1cc(-c2nc(N3CCOCC3)c3oc4ncc(CN5C[C@@H]6C[C@H]5CO6)cc4c3n2)c2cc[nH]c2c1 [Example A, 4-(1H-Indol-4-yl)-6-(morpholin-4-yl)-12-[(1S,4S)-2-oxa-5-azabicyclo[2.2.1]heptan-5-ylmethyl]-8-oxa-3,5,10-triazatricyclo[7.4.0.0^2,7]trideca-1(13),2(7),3,5,9,11-hexaene]

Structure (SMILES): c1cc(-c2nc(N3CCOCC3)c3oc4ncc(CN5CCC6(CC5)COC6)cc4c3n2)c2cc[nH]c2c1 [Example B, 4-(1H-Indol-4-yl)-6-(morpholin-4-yl)-12-{2-oxa-7-azaspiro[3.5]nonan-7-ylmethyl}-8-oxa-3,5,10-triazatricyclo[7.4.0.0^2,7]trideca-1(13),2(7),3,5,9,11-hexaene]
- Clearance ([2]; IV, 3 mg/kg, mesylate salt): 33.06 mL/min/kg
- Oral Bioavailability (F) [2]: 74

Structure (SMILES): c1cc(-c2nc(N3CCOCC3)c3oc4ncc(CN5CCC56COC6)cc4c3n2)c2cc[nH]c2c1 [Example G, 4-(1H-indol-4-yl)-6-(morpholin-4-yl)-12-{6-oxa-1-azaspiro[3.3]heptan-1-ylmethyl}-8-oxa-3,5,10-triazatricyclo[7.4.0.0^2,7]trideca-1(13), 2(7), 3,5,9,11-hexaene]
- Oral Bioavailability (F) [2]: 30

- bioavailability ([1]; HCl salt): 29.6%
Structure (SMILES): c1cc(-c2nc(N3CCOCC3)c3oc4ncc(CN5CCCCC5)cc4c3n2)c2cc[nH]c2c1 [Example I in WO2011/021038, reference compound]
